Results: the supplement of paper PMC5908809

Assays:
KAI3 (IL-2 2.5 ng/mL) [1] = test: percent inhibition of viability; higher = more inhibition; conditions: 72 h
[2] = tested on: normal primary NK cells, pool 2 (3 donors) (IL-2 2.5 ng/mL); test: as above; conditions: 72 h
[3] = tested on: normal primary NK cells, pool 1 (3 donors), resting (IL-2 0 ng/mL); test: as above; conditions: 72 h
IMC-1 (IL-2 20 ng/mL) [4] = test: as above; conditions: 72 h
NK-YS (IL-2 2.5 ng/mL) [5] = test: as above; conditions: 72 h
NK-92 (IL-2 2.5 ng/mL) [6] = test: as above; conditions: 72 h
[7] = tested on: normal primary NK cells, pool 3 (3 donors) (IL-2 2.5 ng/mL); test: as above; conditions: 72 h
DERL-7 (IL-2 2.5 ng/mL) [8] = test: as above; conditions: 72 h
[9] = tested on: normal primary NK cells, pool 1 (3 donors) (IL-2 2.5 ng/mL); test: as above; conditions: 72 h
NKL (IL-2 2.5 ng/mL) [10] = test: as above; conditions: 72 h
YT (IL-2 2.5 ng/mL) [11] = test: as above; conditions: 72 h
SNK-6 (IL-2 2.5 ng/mL) [12] = test: as above; conditions: 72 h
KHYG-1 (IL-2 2.5 ng/mL) [13] = test: as above; conditions: 72 h
[14] = tested on: normal NK cells expanded with K562-aAPC; test: as above; conditions: 72 h, IL-2 2.5 ng/mL
Protocol: (§1)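 Drug sensitivity and resistance testing on K562-aAPC-expanded normal NK cells: 5 concentrations (10-fold steps over a 10,000-fold range), 72 h at 37 °C, viability by CellTiter-Glo normalised to DMSO and benzethonium chloride controls; DSS from the fitted curve.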

KAI3 (IL-2 2.5 ng/mL) [15] = test: drug sensitivity score (DSS) (DSS units); higher = more sensitive; extreme values may be limits of the assay; conditions: 72 h
[16] = tested on: normal primary NK cells, pool 2 (3 donors) (IL-2 2.5 ng/mL); test: as above; conditions: 72 h
[17] = tested on: normal primary NK cells, pool 1 (3 donors), resting (IL-2 0 ng/mL); test: as above; conditions: 72 h
IMC-1 (IL-2 20 ng/mL) [18] = test: as above; conditions: 72 h
NK-YS (IL-2 2.5 ng/mL) [19] = test: as above; conditions: 72 h
NK-92 (IL-2 2.5 ng/mL) [20] = test: as above; conditions: 72 h
[21] = tested on: normal primary NK cells, pool 3 (3 donors) (IL-2 2.5 ng/mL); test: as above; conditions: 72 h
DERL-7 (IL-2 2.5 ng/mL) [22] = test: as above; conditions: 72 h
[23] = tested on: normal primary NK cells, pool 1 (3 donors) (IL-2 2.5 ng/mL); test: as above; conditions: 72 h
NKL (IL-2 2.5 ng/mL) [24] = test: as above; conditions: 72 h
YT (IL-2 2.5 ng/mL) [25] = test: as above; conditions: 72 h
SNK-6 (IL-2 2.5 ng/mL) [26] = test: as above; conditions: 72 h
KHYG-1 (IL-2 2.5 ng/mL) [27] = test: as above; conditions: 72 h
[28] = tested on: normal NK cells expanded with K562-aAPC; test: as above; conditions: 72 h; IL-2 2.5 ng/mL
Protocol: as §1

O=C(Nc1cccnc1)N1CCC(Cc2cccc(Oc3ccc(C(F)(F)F)cn3)c2)CC1 [PF-3845] (max concentration tested 10000 nM)
percent inhibition of viability [%]
Conditions	1 nM	10 nM	100 nM	1000 nM	10000 nM
DERL-7 (IL-2 2.5 ng/mL) [8]	3.63	-4.44	5.89	0.51	46.1
IMC-1 (IL-2 20 ng/mL) [4]	0.9	-0.47	4.7	13.8	26.2
KAI3 (IL-2 2.5 ng/mL) [1]	-1.12	-6.82	4.46	0.3	25
KHYG-1 (IL-2 2.5 ng/mL) [13]	-4.25	-6.89	-4.44	4.55	60.7
NK-92 (IL-2 2.5 ng/mL) [6]	-1.76	-21.3	-8.96	4.25	35.6
NK-YS (IL-2 2.5 ng/mL) [5]	4.37	-3.27	0.47	10.5	75
NKL (IL-2 2.5 ng/mL) [10]	-5.58	-15.9	-8.48	16.5	66.2
SNK-6 (IL-2 2.5 ng/mL) [12]	-10	-1.35	-9.77	-1.56	25.3
YT (IL-2 2.5 ng/mL) [11]	-2.27	-9.8	1.6	5.87	44.7
[2]	-12.4	3.71	-1.82	-3.09	43.9
[3]	-8.45	-13.6	-17.7	-4.4	74
[7]	-11.4	-5.5	-11.2	-10.4	19.9
[9]	-3.8	-8.73	-11.2	2.66	64.3
[14]	-4.39	-6.94	-8.54	-9.15	-10

Conditions	drug sensitivity score
DERL-7 (IL-2 2.5 ng/mL) [22]	2.45
IMC-1 (IL-2 20 ng/mL) [18]	2.22
KAI3 (IL-2 2.5 ng/mL) [15]	0.99
KHYG-1 (IL-2 2.5 ng/mL) [27]	4
NK-92 (IL-2 2.5 ng/mL) [20]	2.38
NK-YS (IL-2 2.5 ng/mL) [19]	5.91
NKL (IL-2 2.5 ng/mL) [24]	6.2
SNK-6 (IL-2 2.5 ng/mL) [26]	0.86
YT (IL-2 2.5 ng/mL) [25]	3.29
[16]	2
[17]	3.74
[21]	0.32
[23]	3.87
[28]	0

O=C(Nc1cccc(Nc2ncc(Br)c(NCCc3cnc[nH]3)n2)c1)N1CCCC1 [BX-912] (max concentration tested 10000 nM)
percent inhibition of viability [%]
Conditions	1 nM	10 nM	100 nM	1000 nM	10000 nM
DERL-7 (IL-2 2.5 ng/mL) [8]	2.87	-0.14	-7.54	46.5	100
IMC-1 (IL-2 20 ng/mL) [4]	-2.34	-6.68	1.1	67.4	100
KAI3 (IL-2 2.5 ng/mL) [1]	4.7	2.59	15.4	62.1	91.9
KHYG-1 (IL-2 2.5 ng/mL) [13]	2.7	1.66	7.53	73.7	99.5
NK-92 (IL-2 2.5 ng/mL) [6]	-9.43	-1.33	-2.11	29.9	73.8
NK-YS (IL-2 2.5 ng/mL) [5]	-1.46	-2.48	3.48	12.5	71
NKL (IL-2 2.5 ng/mL) [10]	-14.9	-11.4	13.4	37.6	82.2
SNK-6 (IL-2 2.5 ng/mL) [12]	-3.93	-10.2	-7.12	74.4	84.7
YT (IL-2 2.5 ng/mL) [11]	5.65	4	10.3	27.9	94
[2]	-15	-8.59	-3.23	28.3	70.2
[3]	-5.56	-0.72	-0.67	-4.14	48.2
[7]	-2.12	3.72	-4.74	17.4	59.6
[9]	-2.38	3.58	-5.48	24.1	67.8
[14]	6.59	2.98	3.43	27.4	91.5

Conditions	drug sensitivity score
DERL-7 (IL-2 2.5 ng/mL) [22]	11.4
IMC-1 (IL-2 20 ng/mL) [18]	13.3
KAI3 (IL-2 2.5 ng/mL) [15]	13.7
KHYG-1 (IL-2 2.5 ng/mL) [27]	14.9
NK-92 (IL-2 2.5 ng/mL) [20]	8.1
NK-YS (IL-2 2.5 ng/mL) [19]	5.99
NKL (IL-2 2.5 ng/mL) [24]	9.05
SNK-6 (IL-2 2.5 ng/mL) [26]	13.4
YT (IL-2 2.5 ng/mL) [25]	8.82
[16]	7.7
[17]	2.21
[21]	5.85
[23]	7.12
[28]	9.08
